Experimental data reported in patent publication US20250313563A1, “GLYCOGEN SYNTHASE KINASE 3 INHIBITORS AND USES THEREOF” (The Broad Institute, Inc., priority 2022, published 2025).
Like-named read-outs stand apart in the source and are kept apart here.

How the values were obtained:
[1] = biological target: GSK3α (GST-full length GSK3α) (Homo sapiens (Human), UniProt P49840); assay: GSK3α TR-FRET kinase assay; type: biochemical
How it was run: (§1)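 IC50 came from the normalized 665/615 nm TR-FRET ratio plotted against log compound concentration. The Tb-labelled pSer641 antibody and streptavidin-d2 detected phosphorylation of biotinylated S645-primed glycogen synthase peptide (200 nM) by 1 nM full-length GST-kinase. ATP was 4 μM for α, 2 μM for β, or 1 mM.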

[2] = biological target: GSK3b (GST-full length GSK3b) (Homo sapiens (Human), UniProt P49841); assay: GSK3b TR-FRET kinase assay; type: biochemical
GSK3b (GST-full length GSK3b), sequence (P49841 whole entry): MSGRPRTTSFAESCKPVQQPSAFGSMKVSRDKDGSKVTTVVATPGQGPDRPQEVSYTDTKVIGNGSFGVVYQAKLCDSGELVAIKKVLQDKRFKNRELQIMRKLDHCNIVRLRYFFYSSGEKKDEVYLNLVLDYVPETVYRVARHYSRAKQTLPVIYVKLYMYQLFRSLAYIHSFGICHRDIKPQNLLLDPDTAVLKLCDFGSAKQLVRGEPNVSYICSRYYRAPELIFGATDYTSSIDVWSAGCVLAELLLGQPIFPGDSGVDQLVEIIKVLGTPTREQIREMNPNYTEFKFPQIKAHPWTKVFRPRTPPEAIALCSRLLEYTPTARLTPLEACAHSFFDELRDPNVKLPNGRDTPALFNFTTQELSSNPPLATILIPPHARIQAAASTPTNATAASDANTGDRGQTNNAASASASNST
How it was run: as §1

[3] = 1 nM GSK3α, 4 μM ATP, 30 minute preincubation, Table 16, read-out: GSK3-A TR-FRET BIOCHEMICAL (TR-FRET), IC50
[4] = 1 nM GSK3b, 2 μM ATP, 30 minute preincubation, Table 16, read-out: GSK3-B TR-FRET BIOCHEMICAL (TR-FRET), IC50
[5] = 1 nM GSK3α, 4 μM ATP, 30 minute preincubation, Table 16, read-out: GSK3-A TR-FRET BIOCHEMICAL (TR-FRET)
[6] = 1 nM GSK3b, 2 μM ATP, 30 minute preincubation, Table 16, read-out: GSK3-B TR-FRET BIOCHEMICAL (TR-FRET)
[7] = GSK3-A (TR-FRET 1 mM ATP), GMean, IC50, 1 mM ATP, geometric mean
[8] = GSK3-B (TR-FRET 1 mM ATP), GMean, IC50, 1 mM ATP, geometric mean
[9] = read-out: GSK3-A (TR-FRET 1 mM ATP), GMean, IC50, 1 mM ATP, geometric mean
[10] = read-out: GSK3-B (TR-FRET 1 mM ATP), GMean, IC50, 1 mM ATP, geometric mean
[11] = 1 nM GSK3α, 4 μM ATP, 30 minute preincubation, read-out: GSK3-A TR-FRET BIOCHEMICAL (TR-FRET), IC50
[12] = 1 nM GSK3b, 2 μM ATP, 30 minute preincubation, read-out: GSK3-B TR-FRET BIOCHEMICAL (TR-FRET), IC50

GSK3α (GST-full length GSK3α), sequence (P49840 whole entry): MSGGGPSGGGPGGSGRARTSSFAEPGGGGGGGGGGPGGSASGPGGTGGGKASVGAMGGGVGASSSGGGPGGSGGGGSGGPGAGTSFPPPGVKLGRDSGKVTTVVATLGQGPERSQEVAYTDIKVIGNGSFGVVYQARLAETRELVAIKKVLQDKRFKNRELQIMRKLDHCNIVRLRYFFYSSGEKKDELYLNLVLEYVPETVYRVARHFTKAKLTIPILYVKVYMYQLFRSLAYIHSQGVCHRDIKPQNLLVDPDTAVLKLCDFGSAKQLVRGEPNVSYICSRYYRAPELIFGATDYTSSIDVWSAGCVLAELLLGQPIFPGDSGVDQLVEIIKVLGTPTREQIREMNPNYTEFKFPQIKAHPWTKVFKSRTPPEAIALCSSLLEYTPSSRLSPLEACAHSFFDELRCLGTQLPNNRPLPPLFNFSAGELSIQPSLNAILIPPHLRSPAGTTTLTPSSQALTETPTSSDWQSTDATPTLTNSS

Row | Compound | IC50 [1, 3] [nM] | IC50 [2, 4] [nM] | other results
1 | CC[C@]1(c2cccc(C(C)C)c2)C2=C(CC(C)(C)NC2=O)Nc2n[nH]c(C(F)(F)F)c21 [Compound 950493] | 100 to 1000 | 100 to 1000 | 
2 | CC[C@]1(c2cccc(-c3cnn(C)c3F)c2)C2=C(CC(C)(C)NC2=O)Nc2n[nH]cc21 [Compound 950562] | ≤ 100 | 100 to 1000 | 
3 | CC[C@]1(c2cccc(-c3cnn4c3CC(C)(C)CC4)c2)C2=C(CC(C)(C)NC2=O)Nc2n[nH]cc21 [Compound 950564] | ≤ 100 | 100 to 1000 | 
4 | CCC1(c2cccc(C(F)(F)F)c2)C2=C(CCN(c3cc(C)n(C)n3)C2=O)Nc2n[nH]cc21 (stereo not shown) [Compound 950608] | 100 to 1000 | 1000 to 5000 | 
5 | CCC1(c2cccc(C(F)(F)F)c2)C2=C(CCN(c3cnn(C)c3C)C2=O)Nc2n[nH]cc21 (stereo not shown) [Compound 950612] | ≤ 100 | 1000 to 5000 | 
6 | CCC1(c2cccc(C(F)(F)F)c2)C2=C(CCN(c3cccs3)C2=O)Nc2n[nH]cc21 (stereo not shown) [Compound 950614] | ≤ 100 | 100 to 1000 | 
7 | CCC1(c2cccc(Oc3ncccn3)c2)C2=C(CC(C)(C)NC2=O)Nc2n[nH]c(F)c21 (stereo not shown) [Compound 950615] | ≤ 100 | 100 to 1000 | 
8 | CCC1(c2cccc(C(F)(F)F)c2)C2=C(CCN(c3ccsc3)C2=O)Nc2n[nH]cc21 (stereo not shown) [Compound 950776] | ≤ 100 | 100 to 1000 | 
9 | CCC1(c2cccc(-c3cn(C)nc3C)c2)C2=C(CC3(CCS(=O)(=O)CC3)NC2=O)Nc2n[nH]cc21 (stereo not shown) [Compound 950813] | ≤ 100 | 100 to 1000 | 
10 | CC1(C)CC(=O)C2=C(Nc3n[nH]cc3C23CCN(S(=O)(=O)C2CC2)CC3)C1F (stereo not shown) [Compound 950814] |  |  | IC50 [1, 5]: ≤ 100 nM; IC50 [2, 6]: ≤ 100 nM
11 | CCC1(c2cccc(-c3c(C)nnn3C)c2)C2=C(CC(C)(C)C2=O)Nc2n[nH]cc21 (stereo not shown) [Compound 950815] | 100 to 1000 | 1000 to 5000 | 
12 | CC[C@]1(c2cccc(C3CC3)c2)C2=C(CC(C)(C)NC2=O)Nc2n[nH]cc21 [Compound 950817] | > 5000 | > 5000 | 
13 | CCC1(c2cccc(-c3cc(C)nn3C)c2)C2=C(CC(C)(C)C2=O)Nc2n[nH]cc21 (stereo not shown) [Compound 950818] | 100 to 1000 | 1000 to 5000 | 
14 | CC[C@@]1(c2cccc(-c3cnn(C)c3)c2)C2=C(CC(C)(C)C2=O)Nc2n[nH]cc21 [Compound 950819] | 100 to 1000 | 1000 to 5000 | 
15 | CC[C@]1(c2cccc(-c3ccnn3-c3ccc(F)cc3)c2)C2=C(CC(C)(C)NC2=O)Nc2n[nH]cc21 [Compound 950822] | 100 to 1000 | 100 to 1000 | 
16 | CC[C@]1(c2cccc(-c3ccnn3C3CC3(F)F)c2)C2=C(CC(C)(C)NC2=O)Nc2n[nH]cc21 (stereo partly shown) [Compound 950824] | ≤ 100 | ≤ 100 | IC50 [1, 7]: 100 to 1000 nM; IC50 [2, 8]: 100 to 1000 nM
17 | CCC1(c2cccc(-c3c(C)cnc4ccccc34)c2)C2=C(CC(C)(C)NC2=O)Nc2n[nH]cc21 (stereo not shown) [Compound 950825] | > 5000 | > 5000 | 
18 | CCC1(c2cccc(-c3cnn(C)c3)c2)C2=C(CC(C)(C)C2=O)Nc2n[nH]cc21 (stereo not shown) [Compound 950826] | > 5000 | > 5000 | 
19 | CC[C@@]1(c2cccc(-c3cc(C)nn3C)c2)C2=C(CC(C)(C)C2=O)Nc2n[nH]cc21 [Compound 950827] | > 5000 | > 5000 | 
20 | CC[C@]1(c2cccc(C3CC3)c2)C2=C(CC(C)(C)NC2=O)Nc2n[nH]cc21 [Compound 950828] | ≤ 100 | 100 to 1000 | IC50 [1, 9]: 1000 to 5000 nM; IC50 [2, 10]: > 5000 nM
21 | CC[C@]1(c2cccc(-c3cnn4cccnc34)c2)C2=C(CC(C)(C)NC2=O)Nc2n[nH]cc21 [Compound 950830] | ≤ 100 | 100 to 1000 | 
22 | CC[C@@]1(c2cccc(C(F)(F)F)c2)C2=C(CCC2=O)Nc2n[nH]cc21 [Compound 951565] | ≤ 100 | 100 to 1000 | 
23 | CC[C@]1(c2cccc(N(C)c3ncccn3)c2)C2=C(CC(C)(C)NC2=O)Nc2n[nH]c(Cl)c21 [Compound 951592] | > 5000 | > 5000 | 
24 | CCC1(c2cccc(C(F)(F)F)c2)C2=C(CCN(c3ncn(C)c3C)C2=O)Nc2n[nH]cc21 (stereo not shown) [Compound 951598] | 100 to 1000 | > 5000 | 

Row | Compound | IC50 [1, 3] [nM] | IC50 [2, 4] [nM] | other results
25 | CCC1(c2cccc(-c3ccncc3F)c2)C2=C(CC(C)(C)NC2=O)Nc2n[nH]c(C(F)F)c21 (stereo not shown) [Compound 951599] | 100 to 1000 | 100 to 1000 | 
26 | CCC1(c2cccc(Oc3ncccn3)c2)C2=C(CC(C)(C)CC2=O)Nc2n[nH]c(C(F)(F)F)c21 (stereo not shown) [Compound 951604] | ≤ 100 | 100 to 1000 | 
27 | CC[C@@]1(c2cccc(Oc3ncccn3)c2)C2=C(CC(C)(C)NC2=O)Nc2n[nH]c(Cl)c21 [Compound 951605] | 1000 to 5000 | > 5000 | 
28 | CC[C@]1(c2cccc(Oc3ncccn3)c2)C2=C(CC(C)(C)NC2=O)Nc2n[nH]c(C(F)(F)F)c21 [Compound 951607] | ≤ 100 | ≤ 100 | IC50 [1, 9]: ≤ 100 nM; IC50 [2, 10]: 100 to 1000 nM
29 | CC[C@]1(c2cccc(-c3ccncc3F)c2)C2=C(CC(C)(C)NC2=O)Nc2n[nH]c(C(F)F)c21 [Compound 951612] | ≤ 100 | ≤ 100 | IC50 [1, 9]: 100 to 1000 nM; IC50 [2, 10]: 1000 to 5000 nM
30 | CC[C@@]1(c2cccc(N(C)c3ncccn3)c2)C2=C(CC(C)(C)NC2=O)Nc2n[nH]c(Cl)c21 [Compound 951618] | 100 to 1000 | 1000 to 5000 | 
31 | CC(C)S(=O)(=O)N1CCC2(CC1)C1=C(Nc3n[nH]cc32)[C@H](F)C(C)(C)CC1=O [Compound 951701] |  |  | IC50 [1, 11]: ≤ 100 nM; IC50 [1, 7]: 100 to 1000 nM; IC50 [2, 12]: ≤ 100 nM; IC50 [2, 8]: 1000 to 5000 nM
32 | CCC1(c2cccc(-c3cn(C)nc3C)c2)C2=C(CC(C)(C)C2=O)Nc2n[nH]cc21 (stereo not shown) [Compound 951702] | ≤ 100 | 100 to 1000 | IC50 [1, 9]: 100 to 1000 nM; IC50 [2, 10]: > 5000 nM
33 | CC1(C)CC(=O)C2=C(Nc3n[nH]cc3C23CCN(S(=O)(=O)c2cccc(C(F)(F)F)c2)CC3)[C@@H]1F [Compound 951703] |  |  | IC50 [1, 5]: ≤ 100 nM; IC50 [1, 7]: 100 to 1000 nM; IC50 [2, 6]: ≤ 100 nM; IC50 [2, 8]: 1000 to 5000 nM
34 | CC1(C)CC(=O)C2=C(Nc3n[nH]cc3C23CCCCC3)[C@@H]1F [Compound 951705] |  |  | IC50 [1, 5]: ≤ 100 nM; IC50 [2, 6]: ≤ 100 nM
35 | CC[C@]1(c2cccc(-c3cn(C)nc3C3CC3)c2)C2=C(CC(C)(C)NC2=O)Nc2n[nH]cc21 [Compound 951706] | ≤ 100 | ≤ 100 | 
36 | CC[C@]1(c2cccc(-c3cnn(C4CCCCC4)c3)c2)C2=C(CC(C)(C)NC2=O)Nc2n[nH]cc21 [Compound 951707] | 100 to 1000 | 1000 to 5000 | 
37 | Cn1ccc(S(=O)(=O)N2CCC3(CC2)C2=C(Nc4n[nH]cc43)[C@@H](F)C(C)(C)CC2=O)n1 [Compound 951708] |  |  | IC50 [1, 5]: ≤ 100 nM; IC50 [2, 6]: 100 to 1000 nM
38 | Cn1ccc(S(=O)(=O)N2CCC3(CC2)C2=C(Nc4n[nH]cc43)[C@H](F)C(C)(C)CC2=O)n1 [Compound 951709] |  |  | IC50 [1, 5]: ≤ 100 nM; IC50 [2, 6]: 100 to 1000 nM
39 | CC[C@@]1(c2cccc(-c3cn(C)nc3C)c2)C2=C(CC(C)(C)C2=O)Nc2n[nH]cc21 [Compound 951710] | > 5000 | > 5000 | 
40 | CC1(C)CC(=O)C2=C(Nc3n[nH]cc3C23CCCCC3)[C@H]1F [Compound 951711] |  |  | IC50 [1, 5]: ≤ 100 nM; IC50 [2, 6]: ≤ 100 nM
41 | CC1(C)CC(=O)C2=C(Nc3n[nH]cc3C23CCN(S(=O)(=O)c2cccc(C(F)(F)F)c2)CC3)[C@H]1F [Compound 951713] |  |  | IC50 [1, 5]: ≤ 100 nM; IC50 [1, 7]: 100 to 1000 nM; IC50 [2, 6]: ≤ 100 nM; IC50 [2, 8]: 1000 to 5000 nM
42 | CC(C)S(=O)(=O)N1CCC2(CC1)C1=C(Nc3n[nH]cc32)[C@@H](F)C(C)(C)CC1=O [Compound 951714] |  |  | IC50 [1, 11]: ≤ 100 nM; IC50 [1, 7]: 100 to 1000 nM; IC50 [2, 12]: ≤ 100 nM; IC50 [2, 8]: 100 to 1000 nM
43 | CC1(C)CC(=O)C2=C(C1)Nc1n[nH]cc1[C@]21CCN(S(=O)(=O)CC2CC2)C1 [Compound 951723] |  |  | IC50 [1, 11]: ≤ 100 nM; IC50 [1, 7]: ≤ 100 nM; IC50 [2, 12]: ≤ 100 nM; IC50 [2, 8]: 100 to 1000 nM
44 | CC1(C)CC(=O)C2=C(C1)Nc1n[nH]cc1[C@@]21CCN(S(=O)(=O)CC2CC2)C1 [Compound 951724] |  |  | IC50 [1, 5]: ≤ 100 nM; IC50 [2, 6]: ≤ 100 nM
45 | Cn1cc(S(=O)(=O)N2CC[C@]3(C2)C2=C(CC(C)(C)CC2=O)Nc2n[nH]cc23)cn1 [Compound 951725] |  |  | IC50 [1, 5]: ≤ 100 nM; IC50 [1, 7]: 100 to 1000 nM; IC50 [2, 6]: ≤ 100 nM; IC50 [2, 8]: 1000 to 5000 nM
46 | Cn1cc(S(=O)(=O)N2CC[C@@]3(C2)C2=C(CC(C)(C)CC2=O)Nc2n[nH]cc23)cn1 [Compound 951726] |  |  | IC50 [1, 5]: ≤ 100 nM; IC50 [1, 7]: 1000 to 5000 nM; IC50 [2, 6]: ≤ 100 nM; IC50 [2, 8]: 1000 to 5000 nM
47 | CC[C@]1(c2cccc(N(C)c3ncccn3)c2)C2=C(CC(C)(C)NC2=O)Nc2n[nH]c(C(F)F)c21 [Compound 951736] | ≤ 100 | 100 to 1000 | 
